Measured values as given in US20230027066A1 (Urovant Sciences GmbH, priority 2019, published 2023).

Test system: men and women with overactive bladder
Experiment: Phase 3 study of vibegron 75 mg vs placebo and tolterodine ER 4 mg, 12 weeks, efficacy (voiding and urine volume diary)
Assay type: in vivo, human
Conditions: for Patients with at Least 50% Reduction in Urgency Episodes, Adjusted n / Patients with at Least 50% Reduction in Urgency Episodes, Unadjusted (%) / Patients with at Least 50% Reduction in Urgency Episodes, Unadjusted n / Urgency 50% responders, Active - Placebo CMH Difference / Patients with at Least 50% Reduction in Urgency Episodes, Adjusted (%): Dry population; for Urgency Episodes, Week 12 CFB Mean: descriptive statistics; for Micturitions: LS Mean (95% CI): Table 32, week 12
Protocol: Enrollment of patients included individuals with OAB Wet (those with UUI, the involuntary loss of urine accompanied by urgency) and OAB Dry (those without UUI). A total of 1,518 patients were randomized across 215 study sites into one of three groups for a 12-week treatment period.
The study consisted of a Screening Period (1 to 5 weeks), a single-blind Run-in Period (2 weeks), a randomized double-blind Treatment Period (12 weeks), and a Follow-up Period (4 weeks).
Tolterodine ER 4 mg was the active control. […] Between the Baseline and Week 12 Visits, patients had study assessments at Week 4 and Week 8.
The Patient Voiding Diary was used by participants (via the eDiary or paper Diary) to record the frequency of daily OAB symptoms including all micturitions, urgency, incontinence, and main reason for incontinence by selecting the respective box for each symptom occurring during the course of a given day and night.
Urine volume data were collected separately by patients using the Urine Volume component of the eDiary, or the paper Urine Volume Chart. The Urine Volume Chart is a tool used in clinical practice and clinical investigation to assess voiding functions over a 24-hour period and is regarded as a useful instrument in the investigation of patients with voiding symptoms. Urine volume may be collected during any one (1) of the 7 Diary Days prior to the visit, and it should be recorded for ˜24 hours starting from the time the patient gets up for the day and continues until the time the patient gets up for the day on the next day.
For the purpose of this study, the number of micturitions was defined as the number of times a patient has voided in the toilet as indicated on the Patient Voiding Diary. Average daily micturitions were calculated using the daily entries in the Patient Voiding Diary, which was completed over the 7 days prior to each study visit. Average daily number of micturitions were calculated as the total number of micturitions that occurred on a Complete Diary Day divided by the number of Complete Diary Days in the Patient Voiding Diary. A complete diary day required confirmation by the patient in the Patient Voiding Diary that all voids and leakages had been recorded for the diary day. Baseline was defined as the average number of micturitions occurring during the last evaluable diary prior to the Baseline Visit.
The number of UUI episodes was defined as the number of times a patient had checked “urge” as the reason for accidental urine leakage. Average daily UUI episodes at each study visit were calculated in the same manner as described above for the micturition endpoint. The UUI endpoint were analyzed using only OAB Wet patients.
For the analysis of the co-primary endpoints (change from baseline in average number of daily micturitions at Week 12 and change from baseline in average number of daily urge urinary incontinence episodes at Week 12, and placebo adjustment of each), a mixed model for repeated measure (MMRM) with restricted maximum likelihood estimation was used. This model corrects for dropout and accounts for the fact that measurements taken on the same patient over time tend to be correlated by using all available information on patients within the same covariate set to derive an estimate of the treatment effect for a dropout-free population. The analysis model for each efficacy endpoint includes terms for treatment, visit, OAB Type (Wet vs Dry), Sex (Female vs Male), Region (US vs Rest of World), baseline score, and interaction of visit by treatment.
Primary inferences were drawn from treatment differences for the changes from baseline derived from the MMRM models at Week 12. As part of secondary objectives, the treatment differences for each post baseline visit were also derived using the same MMRM model. […]

[1] = No prior anticholinergic use during the prior 12 months
[2] = No prior mirabegron use during the prior 12 months
[3] = Overall, events of Events/Censored
[4] = Prior anticholinergic use during the prior 12 months
[5] = Prior mirabegron use during the prior 12 months
[6] = Week 2, events of Events/Censored
[7] = Week 4, events of Events/Censored

Question: For `O=C(Nc1ccc(C[C@@H]2CC[C@H]([C@H](O)c3ccccc3)N2)cc1)[C@@H]1CCc2nccc(=O)n21` [Vibegron, (6S)-N-[4-[[(2S,5R)−5-[(R)-hydroxy(phenyl)methyl]pyrrolidin−2-yl]methyl]phenyl]−4-oxo−7,8-dihydro−6H-pyrrolo[1,2-a]pyrimidine−6-carboxamide], which “Patients with at Least 50% Reduction in Urgency Episodes, Adjusted n” value (baseline to Week 4) is on record?
Answer: 28

Question: And the “Patients with at Least 50% Reduction in Urgency Episodes, Unadjusted (%)” value (baseline to Week 4)?
Answer: 25.2%

Question: What about the “Patients with at Least 50% Reduction in Urgency Episodes, Unadjusted n” value (baseline to Week 4) of the same compound?
Answer: 31

Question: What about the “Urgency 50% responders, Active - Placebo CMH Difference” value (baseline to Week 4) of the same compound?
Answer: 5.4

Question: What about the “Patients with at Least 50% Reduction in Urgency Episodes, Adjusted (%)” value (baseline to Week 8) of the same compound?
Answer: 31.9%

Question: What about the “Patients with at Least 50% Reduction in Urgency Episodes, Adjusted n” value (baseline to Week 8) of the same compound?
Answer: 39

Question: And the “Patients with at Least 50% Reduction in Urgency Episodes, Unadjusted (%)” value (baseline to Week 8)?
Answer: 35.0%

Question: And the “Patients with at Least 50% Reduction in Urgency Episodes, Unadjusted n” value (baseline to Week 8)?
Answer: 43

Question: And the “Urgency 50% responders, Active - Placebo CMH Difference” value (baseline to Week 8)?
Answer: 12.4

Question: And the “Patients with at Least 50% Reduction in Urgency Episodes, Adjusted (%)” value (baseline to Week 12)?
Answer: 36.9%

Question: And the “Patients with at Least 50% Reduction in Urgency Episodes, Adjusted n” value (baseline to Week 12)?
Answer: 45

Question: What about the “Patients with at Least 50% Reduction in Urgency Episodes, Unadjusted (%)” value (baseline to Week 12) of the same compound?
Answer: 43.1%

Question: What about the “Patients with at Least 50% Reduction in Urgency Episodes, Unadjusted n” value (baseline to Week 12) of the same compound?
Answer: 53

Question: And the “Urgency 50% responders, Active - Placebo CMH Difference” value (baseline to Week 12)?
Answer: 13.9

Question: And the “Urgency Episodes, Week 12 CFB Mean” value (Males with BPH)?
Answer: −1.90

Question: What about the “Urgency Episodes, Week 12 CFB Mean” value (Males without BPH) of the same compound?
Answer: −2.56

Question: What about the “Urgency Episodes, Week 12 CFB Mean” value (No Prior ACH Use in last 12 Mo.) of the same compound?
Answer: −3.00

Question: What about the “Urgency Episodes, Week 12 CFB Mean” value (No Prior B3 Agonist Use in last 12 Mo.) of the same compound?
Answer: −2.94

Question: What about the “Micturitions, 12-week change” value [1] of the same compound?
Answer: −2.1

Question: And the “UUI Episodes, 12-week change” value [1]?
Answer: −2.1

Question: And the “Micturitions, 12-week change” value [2]?
Answer: −2.0

Question: And the “UUI Episodes, 12-week change” value [2]?
Answer: −2.0

Question: And the “Overall Time to First 50% Decrease in Urgency Episodes, 25th Percentile” value (Overall)?
Answer: 4.1 weeks

Question: And the “Overall Time to First 50% Decrease in Urgency Episodes, 50th Percentile” value (Overall)?
Answer: 12.3 weeks

Question: And the “Overall Time to First 50% Decrease in Urgency Episodes, Median (95% CI)” value (Overall)?
Answer: 12.3 (12.1 to 12.6) weeks

Question: What about the “Overall Time to First 100% Decrease in UUI Episodes, 25th Percentile” value (Overall) of the same compound?
Answer: 8.1, NE weeks

Question: And the “Overall Time to First 100% Decrease in UUI Episodes, Median (95% CI)” value (Overall)?
Answer: 13.3 (12.9 to NE) weeks

Question: And the “Urgency Episodes, Week 12 CFB Mean” value (Overall)?
Answer: −2.93

Question: What about the “First 50% Decrease in Urgency Episodes, Events” value [3] of the same compound?
Answer: 256/270

Question: And the “First 100% Decrease in UUI Episodes, Events” value [3]?
Answer: 146/257

Question: What about the “Urgency Episodes, Week 12 CFB Mean” value (Prior ACH Use in last 12 Mo.) of the same compound?
Answer: −2.50

Question: What about the “Urgency Episodes, Week 12 CFB Mean” value (Prior B3 Agonist Use in last 12 Mo.) of the same compound?
Answer: −2.56

Question: And the “Micturitions, 12-week change” value [4]?
Answer: −1.97

Question: What about the “UUI Episodes, 12-week change” value [4] of the same compound?
Answer: −1.46

Question: What about the “Micturitions, 12-week change” value [5] of the same compound?
Answer: −2.83

Question: What about the “UUI Episodes, 12-week change” value [5] of the same compound?
Answer: −1.64

Question: And the “Micturitions: LS Mean (95% CI)” value (Age <65 years)?
Answer: −0.2 (−0.6 to 0.2)

Question: And the “Micturitions: LS Mean (95% CI)” value (Age ≥65 years)?
Answer: −0.9 (−1.3 to −0.4)

Question: What about the “Micturitions: LS Mean (95% CI)” value (Age ≥75 years (posthoc analysis)) of the same compound?
Answer: −1.0 (−1.8 to −0.1)

Question: What about the “Micturitions: LS Mean (95% CI)” value (Females) of the same compound?
Answer: −0.5 (−0.8 to −0.2)

Question: What about the “Micturitions: LS Mean (95% CI)” value (Males) of the same compound?
Answer: −0.6 (−1.4 to 0.1)

Question: And the “Micturitions: LS Mean (95% CI)” value (Non-White)?
Answer: −0.5 (−1.2 to 0.1)

Question: And the “Micturitions: LS Mean (95% CI)” value (OAB Type: Dry)?
Answer: −0.7 (−1.4 to −0.1)

Question: And the “Micturitions: LS Mean (95% CI)” value (OAB Type: Wet)?
Answer: −0.5 (−0.8 to −0.1)

Question: And the “Micturitions: LS Mean (95% CI)” value (Overall)?
Answer: −0.5 (−0.8 to −0.2)

Question: And the “Micturitions: LS Mean (95% CI)” value (Region: Non-US)?
Answer: −0.4 (−1.4 to 0.5)

Question: And the “Micturitions: LS Mean (95% CI)” value (Region: US)?
Answer: −0.5 (−0.8 to −0.2)

Question: What about the “Micturitions: LS Mean (95% CI)” value (White) of the same compound?
Answer: −0.5 (−0.8 to −0.2)

Question: What about the “Average Daily Number of Total Incontinence, Mean (SD)” value (Week 2) of the same compound?
Answer: 2.53 (3.118)

Question: And the “Average daily number of urgency episodes, Mean (SD)” value (Week 2)?
Answer: 6.47 (4.458)

Question: And the “Average volume voided per micturition, Active - Placebo LS Mean Difference” value (Week 2)?
Answer: 11.9 mL

Question: And the “Change from Baseline in Average Daily Number of Total Incontinence, LS Mean (SE)” value (“Change … of Total Incontinence, LS Mean (SE)” for short) (Week 2)?
Answer: −1.6 (0.14)

Question: And the “Change from baseline in average daily number of urgency episodes, LS Mean” value (“Change … of urgency episodes, LS Mean” for short) (Week 2)?
Answer: −1.5

Question: What about the “Change from baseline in average volume voided per micturition, LS Mean (SE)” value (Week 2) of the same compound?
Answer: 14.2 (3.02) mL

Question: What about the “Estimated Incidence of Subjects with 50% Decrease from Baseline (urgency episodes)” value (Week 2) of the same compound?
Answer: 19.6

Question: And the “Estimated Incidence of Subjects with 100% Decrease from Baseline (UUI episodes)” value (Week 2)?
Answer: 7.4

Question: What about the “Total Incontinence, Active - Placebo LS Mean Difference (SE)” value (Week 2) of the same compound?
Answer: −0.7 (0.14)

Question: What about the “Urgency episodes, Active - Placebo LS Mean Difference” value (Week 2) of the same compound?
Answer: −0.6

Question: And the “First 50% Reduction in Urgency Episodes, Events” value [6]?
Answer: 103/423

Question: And the “First 100% Reduction in UUI Episodes, Events” value [6]?
Answer: 30/373

Question: What about the “Average volume voided per micturition, Week 2 Mean (SD)” value (Week 2, vibegron 75 mg, tolterodine ER 4 mg) of the same compound?
Answer: 165.6 (74.26) mL

Question: What about the “Average Daily Number of Total Incontinence, Mean (SD)” value (Week 4) of the same compound?
Answer: 2.28 (3.239)

Question: And the “Average daily number of urgency episodes, Mean (SD)” value (Week 4)?
Answer: 6.02 (4.458)

Question: What about the “Average volume voided per micturition, Active - Placebo LS Mean Difference” value (Week 4) of the same compound?
Answer: 14.5 mL

Question: What about the “Average volume voided per micturition, Week 4 Mean (SD)” value (Week 4) of the same compound?
Answer: 172.6 (76.57) mL

Question: What about the “Change … of Total Incontinence, LS Mean (SE)” value (Week 4) of the same compound?
Answer: −1.9 (0.14)

Question: What about the “Change … of urgency episodes, LS Mean” value (Week 4) of the same compound?
Answer: −1.9

Question: What about the “Change from baseline in average volume voided per micturition, LS Mean (SE)” value (Week 4) of the same compound?
Answer: 18.9 (3.15) mL

Question: And the “Estimated Incidence of Subjects with 50% Decrease from Baseline (urgency episodes)” value (Week 4)?
Answer: 21.1

Question: What about the “Estimated Incidence of Subjects with 100% Decrease from Baseline (UUI episodes)” value (Week 4) of the same compound?
Answer: 9.2

Question: And the “Total Incontinence, Active - Placebo LS Mean Difference (SE)” value (Week 4)?
Answer: −0.8 (0.14)

Question: What about the “Urgency episodes, Active - Placebo LS Mean Difference” value (Week 4) of the same compound?
Answer: −0.8

Question: And the “First 50% Reduction in Urgency Episodes, Events” value [7]?
Answer: 111/415

Question: And the “First 100% Reduction in UUI Episodes, Events” value [7]?
Answer: 37/366

Question: What about the “Average Daily Number of Total Incontinence, Mean (SD)” value (Week 8) of the same compound?
Answer: 2.05 (3.245)

Question: And the “Average daily number of urgency episodes, Mean (SD)” value (Week 8)?
Answer: 5.58 (4.399)

Question: And the “Average volume voided per micturition, Active - Placebo LS Mean Difference” value (Week 8)?
Answer: 18.3 mL

Question: What about the “Average volume voided per micturition, Week 8 Mean (SD)” value (Week 8) of the same compound?
Answer: 173.4 (81.95) mL

Question: What about the “Change … of Total Incontinence, LS Mean (SE)” value (Week 8) of the same compound?
Answer: −2.1 (0.15)

Question: What about the “Change … of urgency episodes, LS Mean” value (Week 8) of the same compound?
Answer: −2.4
